In patent EP0076430A1, “Compositions having antimicrobial activity” (MEDEA RESEARCH S.r.l., priority 1981, dated 1983):
In brackets after ≈: the same amount, converted by molar mass.

Assays:
[1] = Toxicity, LD50 by intraperitoneal route; details: mouse, in vivo, ip, mice
B. subtilis = experiment: Bactericide activity at different contact times; format: cell-based; design: key: + = growth; - = no growth; details: 100 p.p.m.
Experimental: (§1) Different bacterial species isolated from patients are employed.
(§2) Compounds AB5 and AB6 are dissolved in ethanol (ethyl alcohol 95°, C. Erba) and all the subsequent dilutions performed in distilled water. The chlorhexidine is diluted from the commercial product already dissolved in distilled water.
(§3) It is assessed through Dinatech apparatus with "Inoculum 96" head.
(§4) Chemical compounds at established concentra tions are placed in amount of 1 ml in the con tainers, the bacterial inoculum is then added in amount of 0.1 ml (24 hrs culture) and at pre-established times (3,5,10,30,60 and 120 mi nutes), through the head, the mixture compound/ disinfectant agent is transferred in solid medium (agar-heart-brain medium). After incubation at 35°C for 24 hours, the reading is carried out. The tests are repeated in presence of human serum at the concentration of 10%.

Staph. aureus [2] = experiment: Bactericide activity at different contact times; format: cell-based; design: key: + = growth; - = no growth; details: 100 p.p.m.
Experimental: as §1, §2, §3, §4

Salmonella sp. [3] = experiment: Bactericide activity at different contact times; format: cell-based; design: key: + = growth; - = no growth; details: 100 p.p.m.
Experimental: as §1, §2, §3, §4

Pseudomonas aeruginosa [4] = experiment: Bactericide activity at different contact times; format: cell-based; design: key to Bactericide action (growth / no growth) / Bactericide activity (growth / no growth), serum interference test: + = growth; - = no growth; details: 100 p.p.m.
Experimental: as §1, §2, §3, §4

Serratia marcescens [5] = experiment: Minimum inhibitory concentration (MIC), broth dilution; format: cell-based; details: 24 h, strain 1814
Experimental: as §1, §2
(§5) The broth dilution is employed to assess MIC values for all strains. Sterile microtiter plates with U bottom with 96 wells are employed. 0.1 Ml of liquid medium (tryptose Roche broth) are put in each well, the plates are kept at -20° and, before use, at room temperature.
(§6) The disinfectant agent is put in the wells of the row 2 at a concentration of 4000 mcg/ml (real 2000 mcg/ml) and then with a 100 µl micro- pipette dilutions are performed from row 2 to row 11.
(§7) The row 1 is the control of the medium and the row 12 is the control for the fertility of the medium itself.
(§8) After having performed the dilutions, 0.01 ml of a 24 hrs bacterial broth culture (previously diluted at 10^-4 for Gram-negative strains and 10-2 for Gram-positive ones) are placed in all wells, from the rows 2 to 12. After the inoculation, the plate is hermetical ly sealed with adhesive transparent band and an hole is done with a needle. The plates are kept at 35° for 24 hours and a macroscopic reading is carried out; in case of non uniform reading, taking place only for chlorhexidine, the cultures from the wells are plated on agar-heart-brain medium (Sclavo) through Dinatech apparatus (head "Inoculum 96") and the reading of the growth is carried out in the following 24 hours.

Staph. aureus [6] = experiment: as above; format: cell-based; details: Staphylococcus aureus, 24 h; strain 2672
Experimental: as §1, §2, §5, §6, §7, §8

Pseudomonas aeruginosa [7] = experiment: as above; format: cell-based; details: 24 h
Experimental: as §1, §2, §5, §6, §7, §8

Bacillaceae = experiment: as above; format: cell-based; details: 24 h; strain 1722
Experimental: as §1, §2, §5, §6, §7, §8

Enterobacter = experiment: as above; format: cell-based; details: 24 h, strain 2643
Experimental: as §1, §2, §5, §6, §7, §8

Indole-positive Proteus [8] = experiment: as above; format: cell-based; details: 24 h
Experimental: as §1, §2, §5, §6, §7, §8

Salmonella sp. [9] = experiment: as above; format: cell-based; details: 24 h, strain 2482
Experimental: as §1, §2, §5, §6, §7, §8

E.coli = experiment: as above; format: cell-based; details: Escherichia coli, 24 h
Experimental: as §1, §2, §5, §6, §7, §8

Serratia marcescens [10] = experiment: Bactericide activity at different contact times; format: cell-based; design: key to Bactericide action (growth / no growth): + = growth; - = no growth; details: 100 p.p.m.
Experimental: as §1, §2, §3, §4

E. coli = experiment: Bactericide activity at different contact times; format: cell-based; design: key to Bactericide action (growth / no growth): + = growth; - = no growth; details: 100 p.p.m.
Experimental: as §1, §2, §3, §4

Indole-positive Proteus [11] = experiment: Bactericide activity at different contact times; format: cell-based; design: key to Bactericide action (growth / no growth): + = growth; - = no growth; details: 100 p.p.m.
Experimental: as §1, §2, §3, §4

Question: For NC(=NCl)c1ccccc1 [AB5], which LD50 [1] is on record?
Answer: 85 mg/kg

Question: And the “Bactericide action (growth / no growth)” value (B. subtilis; contact time 3 min)?
Answer: -

Question: What about the “Bactericide action (growth / no growth)” value (B. subtilis; contact time 5 min) of the same compound?
Answer: -

Question: What about the “Bactericide action (growth / no growth)” value (B. subtilis; contact time 10 min) of the same compound?
Answer: -

Question: And the “Bactericide action (growth / no growth)” value (B. subtilis; contact time 30 min)?
Answer: -

Question: And the “Bactericide action (growth / no growth)” value (B. subtilis; contact time 60 min)?
Answer: -

Question: What about the “Bactericide action (growth / no growth)” value (B. subtilis; contact time 120 min) of the same compound?
Answer: -

Question: What about the “Bactericide action (growth / no growth)” value (Staph. aureus [2]; contact time 3 min) of the same compound?
Answer: +

Question: What about the “Bactericide action (growth / no growth)” value (Staph. aureus [2]; contact time 5 min) of the same compound?
Answer: +

Question: What about the “Bactericide action (growth / no growth)” value (Staph. aureus [2]; contact time 10 min) of the same compound?
Answer: +

Question: What about the “Bactericide action (growth / no growth)” value (Staph. aureus [2]; contact time 30 min) of the same compound?
Answer: +

Question: What about the “Bactericide action (growth / no growth)” value (Staph. aureus [2]; contact time 60 min) of the same compound?
Answer: -

Question: And the “Bactericide action (growth / no growth)” value (Staph. aureus [2]; contact time 120 min)?
Answer: -

Question: And the “Bactericide action (growth / no growth)” value (Salmonella sp. [3]; contact time 3 min)?
Answer: +

Question: And the “Bactericide action (growth / no growth)” value (Salmonella sp. [3]; contact time 5 min)?
Answer: +

Question: And the “Bactericide action (growth / no growth)” value (Salmonella sp. [3]; contact time 10 min)?
Answer: -

Question: And the “Bactericide action (growth / no growth)” value (Salmonella sp. [3]; contact time 30 min)?
Answer: -

Question: What about the “Bactericide action (growth / no growth)” value (Salmonella sp. [3]; contact time 60 min) of the same compound?
Answer: -

Question: What about the “Bactericide action (growth / no growth)” value (Salmonella sp. [3]; contact time 120 min) of the same compound?
Answer: -

Question: What about the “contact time for total bactericide activity” value (from here on “contact time”) (Pseudomonas aeruginosa [4]) of the same compound?
Answer: 60 to 120 min

Question: What about the “Bactericide action (growth / no growth)” value (Pseudomonas aeruginosa [4]; contact time 3 min) of the same compound?
Answer: +

Question: And the “Bactericide action (growth / no growth)” value (Pseudomonas aeruginosa [4]; contact time 5 min)?
Answer: +

Question: And the “Bactericide action (growth / no growth)” value (Pseudomonas aeruginosa [4]; contact time 10 min)?
Answer: +

Question: What about the “Bactericide action (growth / no growth)” value (Pseudomonas aeruginosa [4]; contact time 30 min) of the same compound?
Answer: +

Question: And the “Bactericide action (growth / no growth)” value (Pseudomonas aeruginosa [4]; contact time 60 min)?
Answer: +

Question: And the “Bactericide action (growth / no growth)” value (Pseudomonas aeruginosa [4]; contact time 120 min)?
Answer: -

Question: What about the MIC (Serratia marcescens [5]) of the same compound?
Answer: 31.2 µg/mL (≈ 202 µM)

Question: And the MIC (Staph. aureus [6])?
Answer: 250 µg/mL (≈ 1620 µM)

Question: And the MIC (Pseudomonas aeruginosa [7]; strain 2084)?
Answer: 250 µg/mL (≈ 1620 µM)

Question: What about the MIC (Pseudomonas aeruginosa [7]; strain 2458) of the same compound?
Answer: 500 µg/mL (≈ 3230 µM)

Question: And the MIC (Pseudomonas aeruginosa [7]; strain 2488)?
Answer: 250 µg/mL (≈ 1620 µM)

Question: What about the MIC (Pseudomonas aeruginosa [7]; strain 2508) of the same compound?
Answer: 500 µg/mL (≈ 3230 µM)

Question: What about the MIC (Pseudomonas aeruginosa [7]; strain 2509) of the same compound?
Answer: 250 µg/mL (≈ 1620 µM)

Question: What about the MIC (Pseudomonas aeruginosa [7]; strain 2670) of the same compound?
Answer: 500 µg/mL (≈ 3230 µM)

Question: What about the MIC (Bacillaceae) of the same compound?
Answer: 15.6 µg/mL (≈ 101 µM)

Question: What about the MIC (Enterobacter) of the same compound?
Answer: 250 µg/mL (≈ 1620 µM)

Question: And the MIC (Indole-positive Proteus [8]; strain 2075)?
Answer: 250 µg/mL (≈ 1620 µM)

Question: And the MIC (Indole-positive Proteus [8]; strain 2083)?
Answer: 125 µg/mL (≈ 809 µM)

Question: And the MIC (Indole-positive Proteus [8]; strain 2105)?
Answer: 500 µg/mL (≈ 3230 µM)

Question: What about the MIC (Indole-positive Proteus [8]; strain 2410) of the same compound?
Answer: 250 µg/mL (≈ 1620 µM)

Question: And the MIC (Indole-positive Proteus [8]; strain 2447)?
Answer: 500 µg/mL (≈ 3230 µM)

Question: What about the MIC (Indole-positive Proteus [8]; strain 2674) of the same compound?
Answer: 500 µg/mL (≈ 3230 µM)

Question: What about the MIC (Salmonella sp. [9]) of the same compound?
Answer: 250 µg/mL (≈ 1620 µM)

Question: And the MIC (E.coli; strain 2094)?
Answer: 250 µg/mL (≈ 1620 µM)

Question: What about the MIC (E.coli; strain 2096) of the same compound?
Answer: 250 µg/mL (≈ 1620 µM)

Question: And the MIC (E.coli; strain 2117)?
Answer: 250 µg/mL (≈ 1620 µM)

Question: What about the MIC (E.coli; strain 2456) of the same compound?
Answer: 500 µg/mL (≈ 3230 µM)

Question: What about the MIC (E.coli; strain 2568) of the same compound?
Answer: 500 µg/mL (≈ 3230 µM)

Question: And the “Bactericide action (growth / no growth)” value (Serratia marcescens [10]; contact time 3 min)?
Answer: -

Question: And the “Bactericide action (growth / no growth)” value (Serratia marcescens [10]; contact time 5 min)?
Answer: -

Question: What about the “Bactericide action (growth / no growth)” value (Serratia marcescens [10]; contact time 10 min) of the same compound?
Answer: -

Question: What about the “Bactericide action (growth / no growth)” value (Serratia marcescens [10]; contact time 30 min) of the same compound?
Answer: -

Question: What about the “Bactericide action (growth / no growth)” value (Serratia marcescens [10]; contact time 60 min) of the same compound?
Answer: -

Question: And the “Bactericide action (growth / no growth)” value (Serratia marcescens [10]; contact time 120 min)?
Answer: -

Question: And the “contact time” value (E. coli)?
Answer: ≤ 3 min

Question: And the “Bactericide action (growth / no growth)” value (E. coli; contact time 3 min)?
Answer: -

Question: What about the “Bactericide action (growth / no growth)” value (E. coli; contact time 5 min) of the same compound?
Answer: -

Question: What about the “Bactericide action (growth / no growth)” value (E. coli; contact time 10 min) of the same compound?
Answer: -

Question: What about the “Bactericide action (growth / no growth)” value (E. coli; contact time 30 min) of the same compound?
Answer: -

Question: What about the “Bactericide action (growth / no growth)” value (E. coli; contact time 60 min) of the same compound?
Answer: -

Question: And the “Bactericide action (growth / no growth)” value (E. coli; contact time 120 min)?
Answer: -

Question: What about the “contact time” value (Indole-positive Proteus [11]) of the same compound?
Answer: 60 to 120 min

Question: What about the “Bactericide action (growth / no growth)” value (Indole-positive Proteus [11]; contact time 3 min) of the same compound?
Answer: +

Question: And the “Bactericide action (growth / no growth)” value (Indole-positive Proteus [11]; contact time 5 min)?
Answer: +

Question: What about the “Bactericide action (growth / no growth)” value (Indole-positive Proteus [11]; contact time 10 min) of the same compound?
Answer: -

Question: And the “Bactericide action (growth / no growth)” value (Indole-positive Proteus [11]; contact time 30 min)?
Answer: -

Question: And the “Bactericide action (growth / no growth)” value (Indole-positive Proteus [11]; contact time 60 min)?
Answer: -

Question: What about the “Bactericide action (growth / no growth)” value (Indole-positive Proteus [11]; contact time 120 min) of the same compound?
Answer: -
